# Literature values in patent publication US9439866B2, “Trazodone composition for once a day administration” (priority 2005, dated 2016).
# “Also recorded” adds a separate entry of the source.
compound,measurement,setting,value
Cl.O=c1n(CCCN2CCN(c3cccc(Cl)c3)CC2)nc2ccccn12 [trazodone],solubility below its pKa,"acid media (stomach and upper intestines), pH below pKa",highly soluble
same,solubility above its pKa,"neutral and basic conditions of the lower intestine, pH above pKa",very low; also recorded: poorly soluble
